Usually IC50 stands for the concentration at which inhibition is half-maximal.

Our source for the IC50 values is US20070197512A1, “Carboxylic Acid Compounds and Use Thereof” (Japan Tobacco Inc., priority 2006, published 2007).

This assay deals with T1, human URAT1 (Homo sapiens, UniProt Q96S37).
T1 construct: Human URAT1 full length cDNA was subcloned to expression vector pcDNA3.1; expressed in transfected cells; host or cells: HEK293 cells (pcDNA3.1, geneticin-selected)
T1 sequence (Q96S37 1-553): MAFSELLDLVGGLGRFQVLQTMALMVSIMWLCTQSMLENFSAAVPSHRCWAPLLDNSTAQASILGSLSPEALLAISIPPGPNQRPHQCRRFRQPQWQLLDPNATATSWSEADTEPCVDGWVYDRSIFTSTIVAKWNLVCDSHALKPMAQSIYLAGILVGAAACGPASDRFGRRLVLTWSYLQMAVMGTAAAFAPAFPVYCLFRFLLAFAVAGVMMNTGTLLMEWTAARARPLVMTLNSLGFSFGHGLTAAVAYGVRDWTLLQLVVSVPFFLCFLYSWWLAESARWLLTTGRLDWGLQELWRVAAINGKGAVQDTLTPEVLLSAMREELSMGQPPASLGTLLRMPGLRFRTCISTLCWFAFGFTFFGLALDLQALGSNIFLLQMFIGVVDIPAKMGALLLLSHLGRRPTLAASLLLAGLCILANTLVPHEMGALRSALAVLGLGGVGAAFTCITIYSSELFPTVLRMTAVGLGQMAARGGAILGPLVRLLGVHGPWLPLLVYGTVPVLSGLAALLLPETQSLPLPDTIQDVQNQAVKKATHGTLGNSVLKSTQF
Put plainly: Uric acid transport inhibitory test using human URAT1-expressing cells. The class given is cell-based. The following applies: human URAT1-expressing HEK293 cells, 14C-uric acid 50 μM, uptake 5 min, room temperature; read-out: hURAT1 IC50. From the text: Experimental Example 1 Uric Acid Transport Inhibitory Test Using Human URAT1-Expressing Cells
Human URAT1 full length cDNA was subcloned to expression vector pcDNA3.1 and human URAT1 gene was transfected into human embryonic kidney derived cell line (HEK293 cells) by liposome method using Lipofectamine2000. Simultaneously, HEK293 cells transfected with expression vector pcDNA3.1 alone (hereinafter mock cells) were also produced. HEK293 cells expressing human URAT1 gene or mock cells were selected with geneticin resistance as an index. The functional expression of human URAT1 gene was confirmed by a method similar to the following method, using ^14C-uric acid transport into the cells as an index.
Human URAT1-expressing HEK293 cells or mock cells were cultured in Dulbecco's modified Eagle's MEM medium (high glucose) containing 10% fetal bovine serum, 0.5 mg/mL geneticin sulfate, 100 units/mL penicillin and 100 μg/mL streptomycin under the conditions of 37° C. and 5% CO2 in an incubator. The cells were plated in a 96 well plate (poly-D-Lysine coated) at 1×10^5 cells/well and the following uric acid transport inhibitory test was performed 24 hr later. This test was performed at room temperature.
After the medium was removed by aspiration from each well, the cells were washed once with Hank's Balanced Salt Solution (HBSS) and preincubated with HBSS (100 μL/well) for 5 min. HBSS was aspirated and an assay buffer (wherein NaCl in the above-mentioned HBSS had been substituted with Na-gluconate) containing various concentrations of the Example compound and a radioactive ligand (14C-uric acid; final concentration 50 μM) was added to each well at 50 μL/well and an uptake reaction was carried out for 5 min. After the reaction, the cells were washed twice with ice-cold HBSS (150 μL/well), and Microscinti™ 20 (PerkinElmer) was added at 50 μL/well. The cells were lysed by stirring and the radioactivity of each well was measured by a liquid scintillation counter (TOP COUNT, Packard).
The uric acid transport rate (%) of the Example compound at each concentration was calculated relative to the radioactivity (difference in radioactivity between human URAT1-expressing HEK293 cells and mock cells without addition of Example compound (DMSO addition)) showing URAT1 specific uric acid transport as 100%, and the concentration (IC50) of the Example compound necessary for inhibiting the uric acid transport rate by 50% was determined. In Table 24-Table 27, “+++” means IC50 value of less than 300 nM, “++” means IC50 value of 300 nM to less than 3000 nM, and “+” means IC50 value of not less than 3000 nM.
Take `O=C(O)CCN1C(=O)C(c2ccccc2)Oc2c(Br)cccc21` (stereo not drawn) [Example 66, 3-(8-bromo-3-oxo-2-phenyl-2,3-dihydrobenzo[1,4]oxazin-4-yl)propionic acid]: the IC50 was in the range of 0.3 to 3 µM.
For `Cc1ccc2c(c1)OC(C(C)C)C(=O)N2CCC(=O)O` (stereo not drawn) [Example 43, 3-(2-isopropyl-7-methyl-3-oxo-2,3-dihydrobenzo[1,4]oxazin-4-yl)propionic acid] the value was 0.3 to 3 µM; for `CC(C)C1CN(C(=O)/C=C/C(=O)O)c2cccc(Br)c2O1` (stereo not drawn) [Example 78, (E)-4-(8-bromo-2-isopropyl-2,3-dihydrobenzo[1,4]oxazin-4-yl)-4-oxo-2-butenoic acid], ≥ 3 µM; for `CC(C)C1Oc2ccc(C(F)(F)F)cc2N(CCC(=O)O)C1=O` (stereo not drawn) [Example 97, 3-(2-isopropyl-3-oxo-6-trifluoromethyl-2,3-dihydrobenzo[1,4]oxazin-4-yl)propionic acid], 0.3 to 3 µM.
The figure for `Cc1cc(C)c2c(c1)N(CCC(=O)O)C(=O)C(CC(C)C)O2` (stereo not drawn) [Example 90, 3-(2-isobutyl-6,8-dimethyl-3-oxo-2,3-dihydrobenzo[1,4]oxazin-4-yl)propionic acid] is < 0.3 µM; for `Cc1cc(C)c2c(c1)N(CCC(=O)O)C(=O)C(C)O2` (stereo not drawn) [Example 86, 3-(2,6,8-trimethyl-3-oxo-2,3-dihydrobenzo[1,4]oxazin-4-yl)propionic acid] it is ≥ 3 µM.
As for `CC(C)C1CN(C(=O)/C=C/C(=O)O)c2cccc(C(C)(C)C)c2O1` (stereo not drawn) [Example 52, (E)-4-(8-tert-butyl-2-isopropyl-2,3-dihydrobenzo[1,4]oxazin-4-yl)-4-oxo-2-butenoic acid], the IC50 was ≥ 3 µM.
The figure for `CC(C)C1Oc2c(Cl)cc(Cl)cc2N(CCC(=O)O)C1=O` (stereo not drawn) [Example 80, 3-(6,8-dichloro-2-isopropyl-3-oxo-2,3-dihydrobenzo[1,4]oxazin-4-yl)propionic acid] is < 0.3 µM; for `CC(C)C1Sc2ccccc2N(CC(=O)O)C1=O` (stereo not drawn) [Example 30, (2-isopropyl-3-oxo-2,3-dihydrobenzo[1,4]thiazin-4-yl)acetic acid] it is ≥ 3 µM; for `Cc1cc(C)c2c(c1)N(CCC(=O)O)C(=O)CO2` [Example 82, 3-(6,8-dimethyl-3-oxo-2,3-dihydrobenzo[1,4]oxazin-4-yl)propionic acid] it is ≥ 3 µM.
For `CC(C)c1cccc2c1OC(C(C)C)C(=S)N2CCCC(=O)O` (stereo not drawn) [Example 20, 4-(2,8-diisopropyl-3-thioxo-2,3-dihydrobenzo[1,4]oxazin-4-yl)butyric acid] the value was ≥ 3 µM; for `Cc1cc(C)c2c(c1)N(CCC(=O)O)C(=O)C(Cc1ccccc1)O2` (stereo not drawn) [Example 92, 3-(2-benzyl-6,8-dimethyl-3-oxo-2,3-dihydrobenzo[1,4]oxazin-4-yl)propionic acid], ≥ 3 µM.
For `COC(=O)CN1C(=O)CSc2ccccc21` [Example 2, (3-oxo-2,3-dihydrobenzo[1,4]thiazin-4-yl)acetic acid methyl ester] the value was ≥ 3 µM; for `O=C(O)CCN1C(=O)C(c2ccccc2)Oc2ccc(Cl)cc21` (stereo not drawn) [Example 77, 3-(6-chloro-3-oxo-2-phenyl-2,3-dihydrobenzo[1,4]oxazin-4-yl)propionic acid], ≥ 3 µM.
`CCC1Oc2c(C(C)C)cccc2N(CC(=O)O)C1=O` (stereo not drawn) [Example 39, (2-ethyl-8-isopropyl-3-oxo-2,3-dihydrobenzo[1,4]oxazin-4-yl)acetic acid]: the IC50 is ≥ 3 µM.
For `O=C(O)CN1C(=S)CSc2ccccc21` [Example 12, (3-thioxo-2,3-dihydrobenzo[1,4]thiazin-4-yl)acetic acid] the value was ≥ 3 µM; for `CC(C)c1cccc2c1OCC(=O)N2CCC(=O)O` [Example 35, 3-(8-isopropyl-3-oxo-2,3-dihydrobenzo[1,4]oxazin-4-yl)propionic acid], ≥ 3 µM.
As to `CC(C)c1cccc2c1OC(C(C)C)C(=O)N2CCCC(=O)O` (stereo not drawn) [Example 18, 4-(2,8-diisopropyl-3-oxo-2,3-dihydrobenzo[1,4]oxazin-4-yl)butyric acid], the IC50 is ≥ 3 µM.
The figure for `Cc1cccc2c1OC(C(C)C)C(=O)N2CCC(=O)O` (stereo not drawn) [Example 44, 3-(2-isopropyl-8-methyl-3-oxo-2,3-dihydrobenzo[1,4]oxazin-4-yl)propionic acid] is < 0.3 µM.
Take `CC(C)C1Oc2c(ccc3ccccc23)N(CCC(=O)O)C1=O` (stereo not drawn) [Example 99, 3-(2-isopropyl-3-oxo-2,3-dihydronaphtho[1,2-b][1,4]oxazin-4-yl)propionic acid]: the IC50 was ≥ 3 µM.
The figure for `COC(=O)CN1C(=O)COc2ccccc21` [Example 1, (3-oxo-2,3-dihydrobenzo[1,4]oxazin-4-yl)acetic acid methyl ester] is ≥ 3 µM; for `O=C(O)CN1C(=S)COc2ccccc21` [Example 17, (3-thioxo-2,3-dihydrobenzo[1,4]oxazin-4-yl)acetic acid] it is ≥ 3 µM.
For `CC(C)c1cccc2c1OC(c1ccccc1)C(=O)N2CC(=O)O` (stereo not drawn) [Example 26, (8-isopropyl-3-oxo-2-phenyl-2,3-dihydrobenzo[1,4]oxazin-4-yl)acetic acid] the value was ≥ 3 µM; for `CC(C)c1cccc2c1OC(C(C)C)CN2C(=O)C(=O)O` (stereo not drawn) [Example 29, (2,8-diisopropyl-2,3-dihydrobenzo[1,4]oxazin-4-yl)oxoacetic acid], ≥ 3 µM.
For `CC1(C)Oc2ccccc2N(CC(=O)O)C1=O` [Example 5, (2,2-dimethyl-3-oxo-2,3-dihydrobenzo[1,4]oxazin-4-yl)acetic acid] the value was ≥ 3 µM; for `CCC1Oc2c(C)cc(C)cc2N(CCC(=O)O)C1=O` (stereo not drawn) [Example 87, 3-(2-ethyl-6,8-dimethyl-3-oxo-2,3-dihydrobenzo[1,4]oxazin-4-yl)propionic acid], < 0.3 µM; for `CC(C)C1Oc2ccccc2N(CC(=O)O)C1=O` (stereo not drawn) [Example 6, (2-isopropyl-3-oxo-2,3-dihydrobenzo[1,4]oxazin-4-yl)acetic acid], ≥ 3 µM.
`O=C(O)CCN1C(=O)COc2ccccc21` [Example 19, 3-(3-oxo-2,3-dihydrobenzo[1,4]oxazin-4-yl)propionic acid]: the IC50 was ≥ 3 µM.
With `CC(C)C1Oc2cc([N+](=O)[O-])ccc2N(CCC(=O)O)C1=O` (stereo not drawn) [Example 95, 3-(2-isopropyl-7-nitro-3-oxo-2,3-dihydrobenzo[1,4]oxazin-4-yl)propionic acid], the IC50 was ≥ 3 µM.
For `O=C(O)CCN1C(=O)C(c2ccccc2)Oc2cc(Cl)ccc21` (stereo not drawn) [Example 76, 3-(7-chloro-3-oxo-2-phenyl-2,3-dihydrobenzo[1,4]oxazin-4-yl)propionic acid] the value was ≥ 3 µM.
The figure for `Cc1ccc2c(c1)OC(c1ccccc1)C(=O)N2CCC(=O)O` (stereo not drawn) [Example 48, 3-(7-methyl-3-oxo-2-phenyl-2,3-dihydrobenzo[1,4]oxazin-4-yl)propionic acid] is ≥ 3 µM; for `CC(C)c1cccc2c1OC(C(C)C)C(=O)N2CC(C)(C)C(=O)O` (stereo not drawn) [Example 42, 3-(2,8-diisopropyl-3-oxo-2,3-dihydrobenzo[1,4]oxazin-4-yl)-2,2-dimethylpropionic acid] it is 0.3 to 3 µM.
For `Cc1cc(Cl)cc2c1OC(C(C)C)C(=O)N2CCC(=O)O` (stereo not drawn) [Example 81, 3-(6-chloro-2-isopropyl-8-methyl-3-oxo-2,3-dihydrobenzo[1,4]oxazin-4-yl)propionic acid] the value was < 0.3 µM.
